Results published in US12509474B2, “Inhibitors of complement factors and uses thereof” (Annexon, Inc., priority 2020, dated 2025).
Structures can show the parent of a compound that is named as a salt.

Molecular target: T1, human C1s protein (Homo sapiens, UniProt P09871)
T1 construct: A104
T1 sequence (P09871 16-688): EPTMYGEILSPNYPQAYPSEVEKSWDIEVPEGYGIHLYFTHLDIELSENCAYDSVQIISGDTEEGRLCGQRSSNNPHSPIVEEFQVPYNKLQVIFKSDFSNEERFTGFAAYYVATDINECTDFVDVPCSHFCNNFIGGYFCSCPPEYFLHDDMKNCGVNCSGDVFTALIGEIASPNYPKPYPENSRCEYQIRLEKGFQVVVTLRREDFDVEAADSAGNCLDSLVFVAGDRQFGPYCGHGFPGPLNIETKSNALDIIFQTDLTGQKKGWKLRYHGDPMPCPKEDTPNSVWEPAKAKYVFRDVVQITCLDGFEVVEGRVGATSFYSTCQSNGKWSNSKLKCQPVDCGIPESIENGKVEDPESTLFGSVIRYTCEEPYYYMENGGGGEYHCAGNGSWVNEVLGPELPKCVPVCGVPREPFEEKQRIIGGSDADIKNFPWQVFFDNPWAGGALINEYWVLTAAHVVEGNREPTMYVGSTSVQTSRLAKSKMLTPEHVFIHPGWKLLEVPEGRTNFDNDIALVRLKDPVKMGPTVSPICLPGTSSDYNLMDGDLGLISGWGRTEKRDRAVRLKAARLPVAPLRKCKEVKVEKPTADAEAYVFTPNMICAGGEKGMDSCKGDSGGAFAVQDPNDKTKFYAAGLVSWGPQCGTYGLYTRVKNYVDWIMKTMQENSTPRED
Assay: C1s enzymatic assay (hydrolysis of YLGR-Rh110-dPro)
Type: biochemical
Conditions: substrate YLGR-Rh110-dPro 20 μM, 15 min pre-incubation, 60 min RT, fluorescence, read-out: hC1s pIC50 (converted)
How it was run: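 Fluorogenic assay in which C1s cleaves YLGR-Rh110-dPro (20 μM final) to release fluorescent Rh110, in buffer with 0.1 mg/mL BSA. Enzyme was preincubated 15 min with compound before substrate was added. Compounds were run as 11-point curves, with DMSO as high control and Nafamostat as low control.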

| IC50 [nM] | SMILES |
| --- | --- |
| 363 | Cc1nnc(N)c2ccc(-n3cc(B(O)O)cn3)cc12 [Example 23, [1-(1-amino-4-methylphthalazin-6-yl)pyrazol-4-yl]boronic Acid] |
| 7.59 | Nc1cnnc2cc(-c3cc(B(O)O)ccc3C(=O)N3CCCC3)ccc12 [Example 124, [3-(4-aminocinnolin-7-yl)-4-(pyrrolidine-1-carbonyl)phenyl]boronic Acid] |
| 3.55 | CC1Cc2ccc(-c3ccc4c(N)cnnc4c3)cc2B(O)O1 (single isomer, unassigned) [Example 95] |
| 1.02 | Cc1nnc(N)c2ccc(-c3cc(B(O)O)cc(P(C)(C)=O)c3)cc12 [Example 40, [3-(1-amino-4-methylphthalazin-6-yl)-5-dimethylphosphorylphenyl]boronic Acid Formic Acid Salt] |
| 0.646 | Cc1nc2c(-c3ccc4c(N)cnnc4c3)cc(B(O)O)cc2o1 [Example 119, [4-(4-aminocinnolin-7-yl)-2-methyl-1,3-benzoxazol-6-yl]boronic Acid Formic Acid Salt] |
| 1.2 | Cc1cc(C#N)c(-c2ccc3c(N)nnc(C)c3c2)cc1B(O)O [Example 41, [5-(1-amino-4-methylphthalazin-6-yl)-4-cyano-2-methylphenyl]boronic Acid] |
| 1.55 | Nc1cnnc2cc(-c3cc(F)c4c(c3)B(O)OCC4)ccc12 [Example 99, 7-(4-aminocinnolin-7-yl)-5-fluoro-3,4-dihydro-1H-2,1-benzoxazonin-1-ol] |
| 0.575 | Nc1cnnc2cc(-c3cc(B(O)O)ccc3OCC3CCCO3)ccc12 (stereo not drawn) [Example 82, [3-(4-aminocinnolin-7-yl)-4-(oxolan-2-ylmethoxy)phenyl]boronic Acid] |
| 2.88 | CC(C)NC(=O)COc1ccc(B(O)O)cc1-c1ccc2c(N)cnnc2c1 [Example 76, [3-(4-aminocinnolin-7-yl)-4-[2-oxo-2-(propan-2-ylamino)ethoxy]phenyl]boronic Acid] |
| 224 | CNc1cnnc2cc(-c3cc(B(O)O)ccc3OC)ccc12 [Example 75, [4-methoxy-3-[4-(methylamino)cinnolin-7-yl]phenyl]boronic Acid] |
| 17 | COc1ccc(B(O)O)cc1-c1cc(C)c2c(N)cnnc2c1 [Example 67, [3-(4-amino-5-methylcinnolin-7-yl)-4-methoxyphenyl]boronic Acid] |
| 1 | COCCOCCOc1ccc(B(O)O)cc1-c1ccc2c(N)cnnc2c1 [Example 107, [3-(4-aminocinnolin-7-yl)-4-[2-(2-methoxyethoxy)ethoxy]phenyl]boronic Acid] |
| 0.851 | C[C@@H]1C[C@H](Oc2ccc(B(O)O)cc2-c2ccc3c(N)cnnc3c2)C[C@H](C)O1 [Example 123, [3-(4-aminocinnolin-7-yl)-4-{[(2R,4R,6S)-2,6-dimethyloxan-4-yl]oxy}phenyl]boronic Acid Formic Acid Salt] |
| 0.724 | Nc1cnnc2cc(-c3cc(B(O)O)ccc3OC3CCOCC3)ccc12 [Example 51, [3-(4-aminocinnolin-7-yl)-4-(oxan-4-yloxy)phenyl]boronic Acid Formic Acid Salt] |
| 4.57 | Cc1nnc(N)c2ccc(-c3cc(B(O)O)ccc3NC(=O)C3CC(F)(F)CN3)cc12 (stereo in doubt) [Example 81, [3-(1-amino-4-methylphthalazin-6-yl)-4-[[(2S)-4,4-difluoropyrrolidine-2-carbonyl]amino]phenyl]boronic Acid] |
| 1.91 | Cc1nnc(N)c2ccc(-c3cc(B(O)O)ccc3C#N)cc12 [Example 29, [3-(1-amino-4-methylphthalazin-6-yl)-4-cyanophenyl]boronic Acid] |

| IC50 [nM] | SMILES |
| --- | --- |
| 0.603 | Nc1cnnc2cc(-c3cc(B(O)O)c4occc4c3)ccc12 [Example 149, [5-(4-aminocinnolin-7-yl)-1-benzofuran-7-yl]boronic Acid Formic Acid Salt] |
| 55 | Nc1cnnc2cc(-c3ccc4c(c3)B(O)ON=C4)ccc12 [Example 156, 7-(4-aminocinnolin-7-yl)-1H-2,3,1-benzoxazonin-1-ol Formic Acid Salt] |
| 1.32 | Nc1cnnc2cc(-c3cc(B(O)O)ccc3Oc3cncs3)ccc12 [Example 168, [3-(4-aminocinnolin-7-yl)-4-(1,3-thiazol-5-yloxy)phenyl]boronic Acid Formic Acid Salt] |
| 10 | COc1cc2c(cc1-c1ccc3c(N)nnc(C)c3c1)B(O)OC2 [Example 20, 6-(1-hydroxy-5-methoxy-3H-2,1-benzoxaborol-6-yl)-4-methylphthalazin-1-amine] |
| 15.1 | COc1ccc(B(O)O)cc1-c1cc(F)c2c(N)cnnc2c1 [Example 31, [3-(4-amino-5-fluorocinnoline-7-yl)-4-methoxyphenyl]boronic Acid] |
| 3.09 | Nc1cnnc2cc(-c3cc(B(O)O)cc4c3OCCC4)ccc12 [Example 145, [8-(4-aminocinnolin-7-yl)-3,4-dihydro-2H-chromen-6-yl]boronic Acid Formic Acid Salt] |
| 2.24 | COc1cc(C#N)c(B(O)O)cc1-c1ccc2c(N)nnc(C)c2c1 [Example 116, [5-(1-amino-4-methylphthalazin-6-yl)-2-cyano-4-methoxyphenyl]boronic Acid] |
| 1.29 | Cc1ncc(Oc2ccc(B(O)O)cc2-c2ccc3c(N)cnnc3c2)s1 [Example 171, [3-(4-aminocinnolin-7-yl)-4-(2-methylthiazol-5-yl)oxy-phenyl]Boronic Acid Formic Acid Salt] |
| 1.48 | COc1c(F)cc(B(O)O)cc1-c1ccc2c(N)nnc(C)c2c1 [Example 57, [3-(1-amino-4-methylphthalazin-6-yl)-5-fluoro-4-methoxyphenyl]boronic Acid Trifluoroacetic Acid Salt] |
| 2.95 | Cc1nnc(N)c2ccc(-c3cnc(C(F)(F)F)c(B(O)O)c3)cc12 [Example 71, [5-(1-amino-4-methylphthalazin-6-yl)-2-(trifluoromethyl)pyridin-3-yl]boronic Acid] |
| 17.4 | COc1ccc(B(O)O)cc1-c1ccc2c(N)ncc(C)c2c1 [Example 111, [3-(1-amino-4-methylisoquinolin-6-yl)-4-methoxyphenyl]boronic Acid] |
| 1.58 | COc1cc(C(F)(F)F)c(B(O)O)cc1-c1ccc2c(N)nnc(C)c2c1 [Example 37, [5-(1-amino-4-methylphthalazin-6-yl)-4-methoxy-2-(trifluoromethyl)phenyl]boronic Acid Formic Acid Salt] |
| 13.2 | Nc1cnnc2cc(-c3ccc(CC(=O)O)c(B(O)O)c3)ccc12 [Example 127, 2-[4-(4-aminocinnolin-7-yl)-2-(dihydroxyboranyl)phenyl]acetic Acid] |
| 5.25 | Cn1nc(C2CC2)c2c(B(O)O)cc(-c3ccc4c(N)cnnc4c3)cc21 [Example 146, [6-(4-aminocinnolin-7-yl)-3-cyclopropyl-1-methyl-1H-indazol-4-yl]boronic Acid] |
| 6.61 | COc1ccc(B(O)O)cc1-c1cc(F)c2c(N)nnc(C)c2c1 [Example 55] |
| 3.09 | COCCOCCOCCOCCOCCOCCOc1ccc(B(O)O)cc1-c1ccc2c(N)cnnc2c1 [Example 8, [3-(4-aminocinnolin-7-yl)-4-[2-[2-[2-[2-[2-(2-methoxyethoxy)ethoxy]ethoxy]ethoxy]ethoxy]ethoxy]phenyl]boronic Acid] |

| SMILES | IC50 [nM] |
| --- | --- |
| Nc1cnnc2cc(-c3cc(B(O)O)ccc3OC3CC(F)(F)C3)ccc12 [Example 142, [3-(4-aminocinnolin-7-yl)-4-(3,3-difluorocyclobutoxy)phenyl]boronic Acid Formic Acid Salt] | 1.17 |
